Target: T1, SOS1 protein (Homo sapiens, UniProt Q07889)
T1 sequence (Q07889 1-1333): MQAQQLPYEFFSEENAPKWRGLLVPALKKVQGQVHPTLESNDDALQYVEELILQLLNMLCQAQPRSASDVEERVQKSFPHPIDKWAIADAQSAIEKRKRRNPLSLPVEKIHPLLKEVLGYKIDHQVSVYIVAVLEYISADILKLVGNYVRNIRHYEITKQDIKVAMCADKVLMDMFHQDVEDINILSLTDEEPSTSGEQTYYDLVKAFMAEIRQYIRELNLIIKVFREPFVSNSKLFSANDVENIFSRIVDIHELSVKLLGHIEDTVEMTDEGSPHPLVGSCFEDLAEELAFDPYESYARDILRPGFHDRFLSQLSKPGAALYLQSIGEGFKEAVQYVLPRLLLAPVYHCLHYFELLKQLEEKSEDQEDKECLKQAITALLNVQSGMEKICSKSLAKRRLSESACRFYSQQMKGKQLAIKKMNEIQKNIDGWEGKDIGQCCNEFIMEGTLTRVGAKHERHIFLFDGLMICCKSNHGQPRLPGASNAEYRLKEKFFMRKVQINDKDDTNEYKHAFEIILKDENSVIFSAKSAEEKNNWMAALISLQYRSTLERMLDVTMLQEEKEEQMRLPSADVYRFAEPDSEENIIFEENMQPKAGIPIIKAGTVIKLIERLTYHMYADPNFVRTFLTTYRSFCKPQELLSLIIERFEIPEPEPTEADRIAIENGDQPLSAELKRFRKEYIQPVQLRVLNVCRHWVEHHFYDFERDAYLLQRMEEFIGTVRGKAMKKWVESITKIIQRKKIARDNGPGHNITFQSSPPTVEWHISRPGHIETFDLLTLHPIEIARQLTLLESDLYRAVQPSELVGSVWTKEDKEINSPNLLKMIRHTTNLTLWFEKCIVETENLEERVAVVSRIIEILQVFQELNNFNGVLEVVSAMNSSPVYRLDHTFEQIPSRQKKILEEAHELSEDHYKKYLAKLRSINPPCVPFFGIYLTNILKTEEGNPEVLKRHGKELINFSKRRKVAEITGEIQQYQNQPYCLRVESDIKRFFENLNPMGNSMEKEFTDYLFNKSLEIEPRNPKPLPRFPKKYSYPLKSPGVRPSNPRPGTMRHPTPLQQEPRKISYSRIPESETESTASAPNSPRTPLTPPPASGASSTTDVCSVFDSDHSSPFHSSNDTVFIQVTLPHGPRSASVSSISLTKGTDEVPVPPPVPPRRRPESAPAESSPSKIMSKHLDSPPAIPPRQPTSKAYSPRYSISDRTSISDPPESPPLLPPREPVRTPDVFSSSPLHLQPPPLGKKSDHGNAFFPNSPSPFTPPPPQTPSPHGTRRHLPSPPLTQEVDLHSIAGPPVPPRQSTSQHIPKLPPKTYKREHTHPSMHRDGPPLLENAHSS
Assay: SOS1 degradation assay (Western blot) in A-427 cells
Type: cell-based
Set-up: host or cells: NCI-H358, A-427, SW-620, DLD-1 (human cancer cell lines)
Conditions: A-427 (KRAS G12D), 24 h; for DC50: read-out: A427 (G12D) DC50; for Dmax: read-out: A427 (G12D) Dmax
Experimental: Test Example 2: SOS1 Degradation Assay
The degradation of SOS1 by the compounds was investigated on KRAS G12C mutant human non-small cell lung cancer cells NCI-H358 (ATCC or Stem Cell Bank, Chinese Academy of Sciences), KRAS G12D mutant human lung cancer cells A-427 (ATCC), KRAS G12V mutant human colorectal adenocarcinoma cells SW-620 (ATCC), and KRAS G13D mutant human colorectal adenocarcinoma epithelial cells DLD-1 (ATCC). The specific procedures were as follows:
0.95 mL of cells were seeded into each well of a 24-well cell culture plate to achieve a cell density of 5×10^5 cells/well; the cell plate was incubated in an incubator at 37° C. with 5% CO2 overnight. Then 50 μL of the compound solution after dilution was added to each of the wells with the corresponding cells, so that the final concentration of the compound was in a range of 0.03-3000 nM. The final concentration of DMSO was 0.25%.
After dosing, the cell plate was incubated in an incubator at 37° C. with 5% CO2 for 24 h. The cell culture medium in the 24-well plate was removed, and the plate was washed twice with 1×PBS. 180 μL of RIPA (strong) lysis buffer (Beyotime, P0013B) supplemented with 1 mM phenylmethylsulfonyl fluoride, a protease inhibitor mixture (Beyotime, P1008), and a protease phosphatase inhibitor mixture (Beyotime, P1045) was added to lyse adherent NCI-H358 cells at the bottom of the cell culture plate. After the plate was left to stand on ice for 30 min, the protein lysate in each well was transferred to a 1.5 mL centrifuge tube and centrifuged at 15000 g for 20 min at 4° C. […] The concentration of total protein in the cell lysate supernatant was determined using the BCA Protein Quantification Kit (Tiangen, PA115-02). […]
The concentration of total protein in the cell lysate was determined by BCA. […] After the blocking, the PVDF membrane was incubated with an SOS1 primary antibody (Abcam, ab140621) at 4° C. overnight, washed with a TBST buffer (2.4 g of Tris, 8.8 g of NaCl, 1.5 mL of Tween 20, with pH adjusted to 7.4, with the volume brought to 1 L) for 30 min (10 min/time), incubated with a secondary antibody (Abcam, ab205718) at room temperature for 2 h, washed with a TBST buffer for 30 min (10 min/time), and finally incubated with Clarity Western ECL Substrate (BIO-RAD, 170-5061) for 5 min for luminescence and color development, and a chemiluminescence imaging system (Clinx, ChemiScope 6200 Touch) was used for color development and protein mapping. […] The gray correction value for each sample was calculated by the formula: gray correction value=(gray value of target protein/gray value of corresponding internal reference)×103. Then the degradation rate was calculated by comparing the gray correction value with the gray correction value of the control group. […]

Row | DC50 [µM] | Dmax [%] | Structure (SMILES)
1 | ≤ 0.05 | 50 to 80 | COc1cc2nc(C)nc(N[C@H](C)c3cc(-c4c(Cl)cccc4CN(C)C)cs3)c2cc1[C@H]1CC[C@H](C(=O)N2CCC(CCOCC3CCN(C(=O)c4ccc(Cl)c(N5CCC(=O)NC5=O)c4)CC3)CC2)CC1 [Example 5, 1-(2-chloro-5-(4-((2-(1-((1R,4R)-4-(4-(((R)-1-(4-(2-chloro-6-((dimethylamino)methyl)phenyl)thien-2-yl)ethyl)amino)-7-methoxy-2-methylquinazolin-6-yl)cyclohexane-1-carbonyl)piperidin-4-yl)ethoxy)methyl)piperidine-1-carbonyl)phenyl)dihydropyrimidine-2,4(1H,3H)-dione]
2 | ≤ 0.05 | 80 to 100 | COc1cc2nc(C)nc(N[C@H](C)c3cc(-c4c(Cl)cccc4CN(C)C)cs3)c2cc1[C@H]1CC[C@H](C(=O)N2CCN(CC3CCC4(CC3)CCN(C(=O)c3ccc(Cl)c(N5CCC(=O)NC5=O)c3)CC4)CC2)CC1 [Example 1, 1-(2-chloro-5-(9-((4-((1R,4R)-4-(4-(((R)-1-(4-(2-chloro-6-((dimethylamino)methyl)phenyl)thien-2-yl)ethyl)amino)-7-methoxy-2-methylquinazolin-6-yl)cyclohexane-1-carbonyl)piperazin-1-yl)methyl)-3-azaspiro[5.5]undecane-3-carbonyl)phenyl)dihydropyrimidine-2,4(1H,3H)-dione]

Source: patent US20240261418A1, “SOS1 DEGRADING AGENT AND PREPARATION METHOD THEREFOR AND APPLICATION THEREOF” (SHANGHAI LEADINGTAC PHARMACEUTICAL CO. LTD., priority 2021, published 2024)
